Assay results as given in the supplement of paper PMC10307832.

Tests used:
Test in all cases: relative viability (nuclei count vs DMSO), 5 days (fraction); higher = more cells survive
R406 + Dasatinib = compound: COc1cc(Nc2ncc(F)c(Nc3ccc4c(n3)NC(=O)C(C)(C)O4)n2)cc(OC)c1OC [R406] + Cc1nc(Nc2ncc(C(=O)Nc3c(C)cccc3Cl)s2)cc(N2CCN(CCO)CC2)n1 [Dasatinib] (partner 0.075 µM)
Method in brief: (§1)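 The day after seeding in 1536-well plates, lung cancer cell lines were treated by pin tool with a single drug, or with a fixed anchor-drug dose together with five library-drug doses (not always all listed) in √10 steps. After 5 days, a combined fix-and-stain solution (final 0.05% Triton X-100, 1% formaldehyde, 1 ug/ml Hoechst) was added. Nuclei counted on 4× images gave relative viability as treated counts over vehicle counts, reported as the median of duplicate plates.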

Daporinad + Foretinib = compound: O=C(/C=C/c1cccnc1)NCCCCC1CCN(C(=O)c2ccccc2)CC1 [Daporinad] + COc1cc2c(Oc3ccc(NC(=O)C4(C(=O)Nc5ccc(F)cc5)CC4)cc3F)ccnc2cc1OCCCN1CCOCC1 [Foretinib] (partner 0.25 µM)
Method in brief: as §1

R406 + Alpelisib = compound: COc1cc(Nc2ncc(F)c(Nc3ccc4c(n3)NC(=O)C(C)(C)O4)n2)cc(OC)c1OC [R406] + Cc1nc(NC(=O)N2CCC[C@H]2C(N)=O)sc1-c1ccnc(C(C)(C)C(F)(F)F)c1 [Alpelisib] (partner 2 µM)
Method in brief: as §1

Daporinad + Crizotinib = compound: O=C(/C=C/c1cccnc1)NCCCCC1CCN(C(=O)c2ccccc2)CC1 [Daporinad] + C[C@@H](Oc1cc(-c2cnn(C3CCNCC3)c2)cnc1N)c1c(Cl)ccc(F)c1Cl [Crizotinib] (partner 1 µM)
Method in brief: as §1

NCI-H2170 showed a relative viability (R406 + Dasatinib; first compound 0.08 µM) of 0.481, a relative viability (R406 + Dasatinib; first compound 0.253 µM) of 0.579 and a relative viability (R406 + Dasatinib; first compound 0.8 µM) of 0.613. The relative viability (R406 + Dasatinib; first compound 2.53 µM) was 0.267, the relative viability (R406 + Dasatinib; first compound 8 µM) was 0.324 and the relative viability (Daporinad + Foretinib; first compound 0.0005 µM) was 0.764. For the same cell line, the relative viability (Daporinad + Foretinib; first compound 0.001581 µM) was 1.03, the relative viability (Daporinad + Foretinib; first compound 0.005 µM) was 1.05 and the relative viability (Daporinad + Foretinib; first compound 0.01581 µM) was 1.01. For the same cell line, the relative viability (R406 + Alpelisib; first compound 0.08 µM) was 0.783, the relative viability (R406 + Alpelisib; first compound 0.253 µM) was 0.773 and the relative viability (R406 + Alpelisib; first compound 0.8 µM) was 0.904. For the same cell line, the relative viability (R406 + Alpelisib; first compound 2.53 µM) was 0.576, the relative viability (R406 + Alpelisib; first compound 8 µM) was 0.714 and the relative viability (Daporinad + Crizotinib; first compound 0.0005 µM) was 1.19. It also gave a relative viability (Daporinad + Crizotinib; first compound 0.001581 µM) of 0.723, a relative viability (Daporinad + Crizotinib; first compound 0.005 µM) of 1.2 and a relative viability (Daporinad + Crizotinib; first compound 0.01581 µM) of 1.27.

In the case of NCI-H2228, the relative viability (R406 + Dasatinib; first compound 0.08 µM) is reported as 0.442, the relative viability (R406 + Dasatinib; first compound 0.253 µM) is reported as 0.695 and the relative viability (R406 + Dasatinib; first compound 0.8 µM) is reported as 0.646. It also gave a relative viability (R406 + Dasatinib; first compound 2.53 µM) of 0.195, a relative viability (R406 + Dasatinib; first compound 8 µM) of 0.135 and a relative viability (Daporinad + Foretinib; first compound 0.0005 µM) of 0.904. The relative viability (Daporinad + Foretinib; first compound 0.001581 µM) was 0.82, the relative viability (Daporinad + Foretinib; first compound 0.005 µM) was 1.24 and the relative viability (Daporinad + Foretinib; first compound 0.01581 µM) was 1.09. The relative viability (R406 + Alpelisib; first compound 0.08 µM) was 0.702, the relative viability (R406 + Alpelisib; first compound 0.253 µM) was 0.735 and the relative viability (R406 + Alpelisib; first compound 0.8 µM) was 0.9. It also gave a relative viability (R406 + Alpelisib; first compound 2.53 µM) of 0.618, a relative viability (R406 + Alpelisib; first compound 8 µM) of 0.161 and a relative viability (Daporinad + Crizotinib; first compound 0.0005 µM) of 0.505. It also gave a relative viability (Daporinad + Crizotinib; first compound 0.001581 µM) of 0.548, a relative viability (Daporinad + Crizotinib; first compound 0.005 µM) of 0.625 and a relative viability (Daporinad + Crizotinib; first compound 0.01581 µM) of 0.636.

In the case of NCI-H2347, the relative viability (R406 + Dasatinib; first compound 0.08 µM) is reported as 0.322, the relative viability (R406 + Dasatinib; first compound 0.253 µM) is reported as 0.339 and the relative viability (R406 + Dasatinib; first compound 0.8 µM) is reported as 0.324. It also gave a relative viability (R406 + Dasatinib; first compound 2.53 µM) of 0.319, a relative viability (R406 + Dasatinib; first compound 8 µM) of 0.299 and a relative viability (Daporinad + Foretinib; first compound 0.0005 µM) of 1.13. For the same cell line, the relative viability (Daporinad + Foretinib; first compound 0.001581 µM) was 1.17, the relative viability (Daporinad + Foretinib; first compound 0.005 µM) was 1.35 and the relative viability (Daporinad + Foretinib; first compound 0.01581 µM) was 1.33. It also gave a relative viability (R406 + Alpelisib; first compound 0.08 µM) of 0.984, a relative viability (R406 + Alpelisib; first compound 0.253 µM) of 1.15 and a relative viability (R406 + Alpelisib; first compound 0.8 µM) of 1.12. The relative viability (R406 + Alpelisib; first compound 2.53 µM) was 0.791, the relative viability (R406 + Alpelisib; first compound 8 µM) was 0.856 and the relative viability (Daporinad + Crizotinib; first compound 0.0005 µM) was 0.841. For the same cell line, the relative viability (Daporinad + Crizotinib; first compound 0.001581 µM) was 0.892, the relative viability (Daporinad + Crizotinib; first compound 0.005 µM) was 0.826 and the relative viability (Daporinad + Crizotinib; first compound 0.01581 µM) was 0.775.

NCI-H2405 was tested, and the relative viability (R406 + Dasatinib; first compound 0.08 µM) was 0.19, the relative viability (R406 + Dasatinib; first compound 0.253 µM) was 0.226 and the relative viability (R406 + Dasatinib; first compound 0.8 µM) was 0.224. For the same cell line, the relative viability (R406 + Dasatinib; first compound 2.53 µM) was 0.198, the relative viability (R406 + Dasatinib; first compound 8 µM) was 0.142 and the relative viability (Daporinad + Foretinib; first compound 0.0005 µM) was 1.16. The relative viability (Daporinad + Foretinib; first compound 0.001581 µM) was 1.08, the relative viability (Daporinad + Foretinib; first compound 0.005 µM) was 1.13 and the relative viability (Daporinad + Foretinib; first compound 0.01581 µM) was 1.05. It also gave a relative viability (R406 + Alpelisib; first compound 0.08 µM) of 0.751, a relative viability (R406 + Alpelisib; first compound 0.253 µM) of 0.756 and a relative viability (R406 + Alpelisib; first compound 0.8 µM) of 0.795. For the same cell line, the relative viability (R406 + Alpelisib; first compound 2.53 µM) was 0.466, the relative viability (R406 + Alpelisib; first compound 8 µM) was 0.205 and the relative viability (Daporinad + Crizotinib; first compound 0.0005 µM) was 0.731. It also gave a relative viability (Daporinad + Crizotinib; first compound 0.001581 µM) of 0.92, a relative viability (Daporinad + Crizotinib; first compound 0.005 µM) of 0.918 and a relative viability (Daporinad + Crizotinib; first compound 0.01581 µM) of 0.511.

Work on NCI-H3122 yielded a relative viability (R406 + Dasatinib; first compound 0.08 µM) of 0.743, a relative viability (R406 + Dasatinib; first compound 0.253 µM) of 0.844 and a relative viability (R406 + Dasatinib; first compound 0.8 µM) of 0.832. It also gave a relative viability (R406 + Dasatinib; first compound 8 µM) of 0.491, a relative viability (Daporinad + Foretinib; first compound 0.0005 µM) of 0.869 and a relative viability (Daporinad + Foretinib; first compound 0.001581 µM) of 0.955. For the same cell line, the relative viability (Daporinad + Foretinib; first compound 0.005 µM) was 0.988, the relative viability (Daporinad + Foretinib; first compound 0.01581 µM) was 1.05 and the relative viability (R406 + Alpelisib; first compound 0.08 µM) was 0.729. For the same cell line, the relative viability (R406 + Alpelisib; first compound 0.253 µM) was 0.807, the relative viability (R406 + Alpelisib; first compound 0.8 µM) was 0.739 and the relative viability (R406 + Alpelisib; first compound 2.53 µM) was 0.695. For the same cell line, the relative viability (R406 + Alpelisib; first compound 8 µM) was 0.678, the relative viability (Daporinad + Crizotinib; first compound 0.0005 µM) was 0.237 and the relative viability (Daporinad + Crizotinib; first compound 0.001581 µM) was 0.29. The relative viability (Daporinad + Crizotinib; first compound 0.005 µM) was 0.261 and the relative viability (Daporinad + Crizotinib; first compound 0.01581 µM) was 0.238.

Cell Line PC-3 [JPC-3] has a relative viability (R406 + Dasatinib; first compound 0.08 µM) of 0.951, a relative viability (R406 + Dasatinib; first compound 0.253 µM) of 1.09 and a relative viability (R406 + Dasatinib; first compound 0.8 µM) of 1.27. For the same cell line, the relative viability (R406 + Dasatinib; first compound 2.53 µM) was 0.915, the relative viability (R406 + Dasatinib; first compound 8 µM) was 0.737 and the relative viability (Daporinad + Foretinib; first compound 0.0005 µM) was 0.978. The relative viability (Daporinad + Foretinib; first compound 0.001581 µM) was 1.03, the relative viability (Daporinad + Foretinib; first compound 0.005 µM) was 1.12 and the relative viability (Daporinad + Foretinib; first compound 0.01581 µM) was 1.05. For the same cell line, the relative viability (R406 + Alpelisib; first compound 0.08 µM) was 0.988, the relative viability (R406 + Alpelisib; first compound 0.253 µM) was 1.15 and the relative viability (R406 + Alpelisib; first compound 0.8 µM) was 1.13. For the same cell line, the relative viability (R406 + Alpelisib; first compound 2.53 µM) was 0.902, the relative viability (R406 + Alpelisib; first compound 8 µM) was 0.699 and the relative viability (Daporinad + Crizotinib; first compound 0.0005 µM) was 1. For the same cell line, the relative viability (Daporinad + Crizotinib; first compound 0.001581 µM) was 1.02, the relative viability (Daporinad + Crizotinib; first compound 0.005 µM) was 1.11 and the relative viability (Daporinad + Crizotinib; first compound 0.01581 µM) was 1.01.

PC-14 gave a relative viability (R406 + Dasatinib; first compound 0.08 µM) of 0.271, a relative viability (R406 + Dasatinib; first compound 0.253 µM) of 0.241 and a relative viability (R406 + Dasatinib; first compound 0.8 µM) of 0.283. It also gave a relative viability (R406 + Dasatinib; first compound 2.53 µM) of 0.105, a relative viability (R406 + Dasatinib; first compound 8 µM) of 0.0312 and a relative viability (Daporinad + Foretinib; first compound 0.0005 µM) of 0.985. The relative viability (Daporinad + Foretinib; first compound 0.001581 µM) was 1.06, the relative viability (Daporinad + Foretinib; first compound 0.005 µM) was 1 and the relative viability (Daporinad + Foretinib; first compound 0.01581 µM) was 1.01. For the same cell line, the relative viability (R406 + Alpelisib; first compound 0.08 µM) was 0.947, the relative viability (R406 + Alpelisib; first compound 0.253 µM) was 1.01 and the relative viability (R406 + Alpelisib; first compound 0.8 µM) was 1.01. It also gave a relative viability (R406 + Alpelisib; first compound 2.53 µM) of 0.664, a relative viability (R406 + Alpelisib; first compound 8 µM) of 0.636 and a relative viability (Daporinad + Crizotinib; first compound 0.0005 µM) of 0.911. For the same cell line, the relative viability (Daporinad + Crizotinib; first compound 0.001581 µM) was 0.876, the relative viability (Daporinad + Crizotinib; first compound 0.005 µM) was 0.913 and the relative viability (Daporinad + Crizotinib; first compound 0.01581 µM) was 0.651.

With RERF-LC-KJ the relative viability (R406 + Dasatinib; first compound 0.08 µM) was 0.782, the relative viability (R406 + Dasatinib; first compound 0.253 µM) was 0.878 and the relative viability (R406 + Dasatinib; first compound 0.8 µM) was 0.939. For the same cell line, the relative viability (R406 + Dasatinib; first compound 2.53 µM) was 0.678, the relative viability (R406 + Dasatinib; first compound 8 µM) was 0.503 and the relative viability (Daporinad + Foretinib; first compound 0.0005 µM) was 0.787. It also gave a relative viability (Daporinad + Foretinib; first compound 0.001581 µM) of 0.809, a relative viability (Daporinad + Foretinib; first compound 0.005 µM) of 0.911 and a relative viability (Daporinad + Foretinib; first compound 0.01581 µM) of 0.886. For the same cell line, the relative viability (R406 + Alpelisib; first compound 0.08 µM) was 0.87, the relative viability (R406 + Alpelisib; first compound 0.253 µM) was 1.07 and the relative viability (R406 + Alpelisib; first compound 0.8 µM) was 0.971. For the same cell line, the relative viability (R406 + Alpelisib; first compound 2.53 µM) was 0.738, the relative viability (R406 + Alpelisib; first compound 8 µM) was 0.597 and the relative viability (Daporinad + Crizotinib; first compound 0.0005 µM) was 0.787. The relative viability (Daporinad + Crizotinib; first compound 0.001581 µM) was 0.861, the relative viability (Daporinad + Crizotinib; first compound 0.005 µM) was 1.06 and the relative viability (Daporinad + Crizotinib; first compound 0.01581 µM) was 0.803.
